Values of other authors, collected in EP4796171A2 (Zealand Pharma A/S, priority 2017, dated 2018).

Conditions: background statement; cited from earlier work

For CC[C@H](C)[C@H](NC(=O)[C@H](Cc1ccccc1)NC(=O)[C@H](CC(=O)O)NC(=O)[C@H](CCCNC(=N)N)NC(=O)[C@H](C)NC(=O)[C@H](C)NC(=O)[C@H](CC(C)C)NC(=O)[C@H](CC(N)=O)NC(=O)[C@H](CC(=O)O)NC(=O)[C@H](CC(C)C)NC(=O)[C@@H](NC(=O)[C@@H](NC(=O)[C@H](CC(N)=O)NC(=O)[C@H](CCSC)NC(=O)[C@H](CCC(=O)O)NC(=O)[C@H](CC(=O)O)NC(=O)[C@H](CO)NC(=O)[C@H](Cc1ccccc1)NC(=O)[C@H](CO)NC(=O)CNC(=O)[C@H](CC(=O)O)NC(=O)CNC(=O)[C@@H](N)Cc1c[nH]cn1)[C@@H](C)O)[C@@H](C)CC)C(=O)N[C@@H](CC(N)=O)C(=O)N[C@@H](Cc1c[nH]c2ccccc12)C(=O)N[C@@H](CC(C)C)C(=O)N[C@H](C(=O)N[C@@H](CCC(N)=O)C(=O)N[C@H](C(=O)N[C@@H](CCCCN)C(=O)N[C@H](C(=O)N[C@H](C(=O)N[C@@H](CC(=O)O)C(=O)O)[C@@H](C)O)[C@@H](C)CC)[C@@H](C)O)[C@@H](C)CC [Teduglutide], the Half-life is listed as “about two”.
